Tests used:
[1] = test system: ECHORC (Watergrass (Calif.)); test: Preemergence weed control under flooded paddy conditions; format: in vivo, Echinochloa oryzoides; conditions: rated 3-4 weeks after treatment
Procedure, shortened: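 Ratings on a 0-9 visual scale cover stand, vigor, malformation, size, chlorosis and overall appearance relative to a control, taken three to four weeks post-treatment. Application was into flood water over freshly sown silt loam at roughly 0.0313 to 0.500 kg/ha.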

[2] = test system: CHEAL (Lambsquarters, Common); test: Preemergence herbicidal evaluation; format: in vivo, Chenopodium album; conditions: preemergence, rated 4-5 weeks after treatment, 0-9 scale
Procedure, shortened: (§1)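 Each species is sown separately in potting soil over roughly an inch of soil before any emergence. The soil surface then receives an aqueous acetone spray delivering about 0.0156 to 0.500 kg/ha of compound. After four to five weeks, injury is scored from 0 to 9 relative to a control.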

[3] = test system: ORYSAT (Rice, Tebonnet); test: Preemergence herbicidal evaluation; format: in vivo, Oryza sativa, (L.) Tebonnet; conditions: preemergence, rated 4-5 weeks after treatment, 0-9 scale
Procedure, shortened: as §1

[4] = test system: MOOVA (Monochoria); test: Postemergence weed control under flooded paddy conditions; format: in vivo, Monochoria vaginalis; conditions: postemergence weeds, rated 3 to 4 weeks after treatment
Procedure, shortened: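 Flood-water application, about 0.0313–0.500 kg/ha a.i. in aqueous/acetone 50/50 v/v; water depth 1.5–3 cm throughout. Weeds 3–5 cm, rice 1.5–2.5 leaf. Greenhouse; 0–9 visual rating vs control at 3–4 wk.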

[5] = test system: CYPSE (Flatsedge); test: Preemergence weed control under flooded paddy conditions; format: in vivo, Cyperus serotinus; conditions: rated 3-4 weeks after treatment
Procedure, shortened: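 Seeds or propagules sown in silt loam kept flooded 1.5-3 cm; compounds in 50/50 acetone/water pipetted into flood water at about 0.0313 to 0.500 kg/ha. Greenhouse; visual 0-9 rating versus untreated control 3-4 weeks after treatment.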

[6] = test system: ECHCG (Barnyardgrass); test: Postemergence herbicidal evaluation; format: in vivo, Echinochloa crus-galli; conditions: postemergence
Procedure, shortened: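 Visual 0-9 injury score (stand, vigor, malformation, size, chlorosis, appearance vs untreated) taken four to five weeks post-spray, averaged across repeat tests. Test plants about two weeks old; foliar spray of acetone/water (1:1) with 0.5% surfactant delivering ~0.0156-0.500 kg active/ha.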

| Structure (SMILES) | ECHORC herbicidal effect rating ([1]; 0.0313 kg/ha) | ECHORC herbicidal effect rating ([1]; 0.0625 kg/ha) | ECHORC herbicidal effect rating ([1]; 0.1250 kg/ha) | ECHORC herbicidal effect rating ([1]; 0.2500 kg/ha) | CHEAL rating ([2]; 0.0313 kg/ha) | CHEAL rating ([2]; 0.0625 kg/ha) | CHEAL rating ([2]; 0.1250 kg/ha) | CHEAL rating ([2]; 0.2500 kg/ha) | ORYSAT rating ([3]; 0.0313 kg/ha) | ORYSAT rating ([3]; 0.0625 kg/ha) | ORYSAT rating ([3]; 0.1250 kg/ha) | ORYSAT rating ([3]; 0.2500 kg/ha) | Herbicidal rating MOOVA ([4]; Rate 0.0313 kg/ha) | Herbicidal rating MOOVA ([4]; Rate 0.0625 kg/ha) | Herbicidal rating MOOVA ([4]; Rate 0.1250 kg/ha) | Herbicidal rating MOOVA ([4]; Rate 0.2500 kg/ha) | CYPSE herbicidal effect rating ([5]; 0.1250 kg/ha) | CYPSE herbicidal effect rating ([5]; 0.2500 kg/ha) | CHEAL rating ([2]; 0.5000 kg/ha) | ORYSAT rating ([3]; 0.5000 kg/ha) | other results |
| --- | --- | --- | --- | --- | --- | --- | --- | --- | --- | --- | --- | --- | --- | --- | --- | --- | --- | --- | --- | --- | --- |
| C=CCN1C(=O)C(CC(=O)OC(C)C(=O)OCC)SC1=Nc1cc(-n2c(=O)ccn(C)c2=O)c(F)cc1Cl [Compound 94, 3-Allyl-2-{{2-chloro-5-[3,6-dihydro-3-methyl-2,6-dioxo-1(2H)-pyrimidinyl]-4-fluorophenyl}imino}-4-oxo-5-thiazolidineacetic acid, ester with ethyl lactate, (R,S)-] | 0.0 | 0.0 | 2.0 | 7.0 | 9.0 | 9.0 | 9.0 | 9.0 | 0.0 | 0.0 | 0.0 | 3.0 | 9.0 | 9.0 | 9.0 | 9.0 | 6.0 | 9.0 |  |  | CHEAL rating ([2]; 0.0156 kg/ha): 9.0; ORYSAT rating ([3]; 0.0156 kg/ha): 0.0; ECHCG herbicidal rating ([6]; rate 0.0158 kg/ha): 1.0; ECHCG herbicidal rating ([6]; rate 0.0315 kg/ha): 7.0; ECHCG herbicidal rating ([6]; rate 0.0630 kg/ha): 9.0 |
| C=CCN1C(=O)C(CC(N)=O)SC1=Nc1cc(-n2c(=O)cc(C(F)(F)F)n(C)c2=O)c(F)cc1Cl (stereo not drawn) [Compound 99, 3-Allyl-2-{{2-chloro-5-[3,6-dihydro-3-methyl-2,6-dioxo-4-(trifluoromethyl)-1(2H)-pyrimidinyl]-4-fluorophenyl}imino}-4-oxo-5-thiazolidineacetamide] | 0.0 | 0.0 | 0.0 | 0.0 | 9.0 | 9.0 | 9.0 | 9.0 | 0.0 | 1.0 | 1.0 | 4.0 | 9.0 | 9.0 | 9.0 | 9.0 | 0.0 | 0.0 | 9.0 | 4.0 | ECHORC herbicidal effect rating ([1]; 0.5000 kg/ha): 4.0; CHEAL rating ([2]; 0.0156 kg/ha): 9.0; ORYSAT rating ([3]; 0.0156 kg/ha): 0.0; Herbicidal rating MOOVA ([4]; Rate 0.5000 kg/ha): 9.0; CYPSE herbicidal effect rating ([5]; 0.0313 kg/ha): 0.0; CYPSE herbicidal effect rating ([5]; 0.0625 kg/ha): 0.0; CYPSE herbicidal effect rating ([5]; 0.5000 kg/ha): 0.0; herbicidal rating ECHCG ([6]; rate 0.0156 kg/ha): 4.0; herbicidal rating ECHCG ([6]; rate 0.0313 kg/ha): 4.0; ECHCG herbicidal rating ([6]; rate 0.0625 kg/ha): 7.0; ECHCG herbicidal rating ([6]; rate 0.1250 kg/ha): 6.0 |
| CCOC(=O)CN1C(=O)C(CC(=O)NS(=O)(=O)CC)SC1=Nc1cc(-n2c(=O)cc(C(F)(F)F)n(C)c2=O)c(F)cc1Cl (stereo not drawn) [Compound 103, Ethyl 2-{{2-chloro-5-[3,6-dihydro-3-methyl-2,6-dioxo-4-(trifluoromethyl)-1(2H)-pyrimidinyl]-4-fluorophenyl}imino}-5-{[(ethylsulfonyl)carbamoyl]-methyl}-4-oxo-3-thiazolidineacetate] | 4.0 | 4.0 | 5.0 | 6.0 | 0.0 | 4.0 | 9.0 | 9.0 | 0.0 | 0.0 | 0.0 | 0.0 | 5.0 | 7.0 | 9.0 | 9.0 | 6.0 | 6.0 | 9.0 | 2.0 | CYPSE herbicidal effect rating ([5]; 0.0313 kg/ha): 5.0; CYPSE herbicidal effect rating ([5]; 0.0625 kg/ha): 5.0; herbicidal rating ECHCG ([6]; rate 0.0156 kg/ha): 3.0; herbicidal rating ECHCG ([6]; rate 0.0313 kg/ha): 9.0; herbicidal rating ECHCG ([6]; rate 0.0625 kg/ha): 9.0; herbicidal rating ECHCG ([6]; rate 0.1250 kg/ha): 9.0 |
| CCOC(=O)CN1C(=O)C(CC(=O)NS(=O)(=O)c2ccccc2)SC1=Nc1cc(-n2c(=O)cc(C(F)(F)F)n(C)c2=O)c(F)cc1Cl (stereo not drawn) [Compound 100, Ethyl 2-{{2-chloro-5-[3,6-dihydro-3-methyl-2,6-dioxo-4-(trifluoromethyl)-1(2H)-pyrimidinyl]-4-fluorophenyl}imino}-4-oxo-5-{[(phenylsulfonyl)-carbamoyl]methyl]-3-thiazolidineacetate] | 0.0 | 0.0 | 0.0 | 3.0 | 9.0 | 9.0 | 9.0 | 9.0 | 0.0 | 0.0 | 0.0 | 0.0 | 9.0 | 9.0 | 9.0 | 9.0 | 0.0 | 0.0 | 9.0 | 1.0 | ECHORC herbicidal effect rating ([1]; 0.5000 kg/ha): 4.0; Herbicidal rating MOOVA ([4]; Rate 0.5000 kg/ha): 9.0; CYPSE herbicidal effect rating ([5]; 0.0313 kg/ha): 0.0; CYPSE herbicidal effect rating ([5]; 0.0625 kg/ha): 0.0; herbicidal rating ECHCG ([6]; rate 0.0156 kg/ha): 1.0; herbicidal rating ECHCG ([6]; rate 0.0313 kg/ha): 3.0; herbicidal rating ECHCG ([6]; rate 0.0625 kg/ha): 4.0; herbicidal rating ECHCG ([6]; rate 0.1250 kg/ha): 7.0 |

— US20020137929A1, “1 - (3-heterocyclylphenyl) isothiourea, -isourea, -guanidine and -amidine herbicidal agents” (Intellectual Property Department, BASF Aktiengesellschaft, priority 1998, published 2002)
